Measured values as given in PMC7997579, “Synthetic Lethality in Pancreatic Cancer: Discovery of a New RAD51-BRCA2 Small Molecule Disruptor That Inhibits Homologous Recombination and Synergizes with Olaparib” (Journal of Medicinal Chemistry, 2020).
Read-outs that look alike come from different tables or passages of the source.

How the values were obtained:
BRC4–RAD51 interaction = target: T1, BRC4–RAD51 interaction (Homo sapiens, UniProt Q06609); test: Competitive biochemical ELISA assay (biotinylated BRC4 peptide vs RAD51); assay type: binding
T1 construct: purchased Creative Biomart (RAD51); Life Technologies (BRC4 peptide)
T1 sequence (Q06609 1-339): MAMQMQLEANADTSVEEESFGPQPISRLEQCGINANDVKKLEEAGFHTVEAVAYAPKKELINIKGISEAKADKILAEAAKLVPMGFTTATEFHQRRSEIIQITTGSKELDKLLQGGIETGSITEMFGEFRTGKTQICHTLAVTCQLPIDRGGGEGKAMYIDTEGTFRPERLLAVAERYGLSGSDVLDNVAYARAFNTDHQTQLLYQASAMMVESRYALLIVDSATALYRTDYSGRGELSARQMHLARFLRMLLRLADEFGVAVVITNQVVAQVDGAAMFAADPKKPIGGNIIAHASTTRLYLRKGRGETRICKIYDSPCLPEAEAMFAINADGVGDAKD
Experimental: To investigate the mechanism of action of the new dihydroquinolone pyrazoline derivatives, different biological assays were performed. As a primary screening, the ability of compounds 5d–57d to inhibit RAD51-BRCA2 interaction was investigated with a competitive biochemical ELISA assay against the parent compound 4d (Table 1). This assay is effective in evaluating the ability of new molecules to compete with BRC4 to bind to RAD51.[30] […] 18d–21d, 23d, 25d, 30d, and 31d were active at micromolar range, all very similar to the initial hit. […] The replacement of the aromatic ring A in combination with the substitution of the pyrazoline nitrogen with either propionyl or acetyl chain yielded compounds 33d–51d. […] As expected for PPI disruptors, the SARs of the new series of dihydroquinolone pyrazoline were rather complex to rationalize, with many cliffs and spikes that were difficult to understand. […] Accordingly, 4d, 12d, 18d, 20d–23d, 30d, 31d, 33d–36d, 39d, 45d, and 49d were submitted to cell-based study (Table 2).
Competitive ELISA screening assay using biotinylated BRC4 peptide to disrupt the BRC4–RAD51 interaction was performed by modifying the method described by Rajendra et al.[33] BRC4-biotinylated peptide (N-term biotin-[…] from Life Technologies) was used to coat 384-well plates (Nunc). After washing with PBS containing 0.05% Tween-20 (PBST) and blocking with the solution BSA 1% /PBST, overnight hybridization with human RAD51 protein (NP_002866 Creative Biomart, NY) was performed. Test compounds were added in dose response from 0.01 to 100 μM in triplicate with constant DMSO 1%. Antibody raised against RAD51 (Millipore) and HRP-secondary antibody staining to develop the 3,3′,5,5′-tetramethylbenzidine signal (Sigma) quenched with 1 M HCl was used as the assay readout. Colorimetric measure was read on a Victor5 (PerkinElmer) plate reader. BRC4 and Rad51 were included in the assay as positive control. Results were analyzed by using GraphPad software.

BxPC3 cells = test: Cell viability assay (CellTiter-Glo), association with olaparib; assay type: cell-based, human; conditions: BxPC3; for olaparib association (increase of antiproliferative effect of olaparib): one or two doses in the range of the ELISA EC50, concentration not given
Description: (§1) Our working hypothesis is that compounds disrupting RAD51-BRCA2 interaction should affect HR repair and increase the efficacy of PARPi in treating breast, ovarian, and pancreatic cancer. For its clinical relevance, pancreatic adenocarcinoma was selected as our final model for cell-based experiments, and BxPC3 cells were selected for a straightforward comparison with the previously reported triazole derivatives.[30],[31] BxPC3 is derived from a human adenocarcinoma that expresses fully functional BRCA2.[38] As shown in Table 2 and according to the rationale of our hypothesis, our preliminary screening consisted of verifying the efficacy of compounds in inhibiting cell HR and/or in increasing the antiproliferative effect of olaparib. […] HR activity was assessed by evaluating the recombination rate between two transfected plasmids, using a commercially available assay. […] As for the emissucinic acid-containing compounds (4d, 12d, 18d, 20d–23d, 30d, 31d), one of the reasons for their lower potency in cells might be the general poor permeability, likely related to the ionizable acid moiety. […] We then characterized 35d in additional biophysical and cell-based experiments.
Cell viability was assessed with the CellTiter-Glo luminescent cell viability assay from Promega. For this experiment, 1 × 10^4 cells in 200 μL of culture medium were seeded into each well of a 96-multiwell white body plate and allowed to adhere overnight. After 72 h incubation in the presence of olaparib (10 μM) and the RAD51-BRCA2 disruptors alone or in combination, the plate was allowed to equilibrate at room temperature for 30 min and the CellTiter-Glo reactive was directly added to each well. The plate was kept on a shaker for 10 min to induce cell lysis, and its luminescence was measured with a Fluoroskan Ascent FL reader (Labsystems).

[1] = tested on: homologous recombination in BxPC3 cells; test: Homologous recombination assay (two-plasmid recombination, real-time PCR); assay type: cell-based, human; conditions: for HR inhibition (in words): BxPC3, one or two doses in the range of the ELISA EC50, NDD = not dose-dependent
Description: as §1
Homologous recombination (HR) was assessed by using a commercially available assay (Norgen). This assay is based on cell transfection with two plasmids that, upon cell entry, recombine. The efficiency of HR can be assessed by real-time PCR, using primer mixtures included in the assay kit. Different primer mixtures allow one to discriminate between the original plasmid backbones and their recombination product.
BxPC3 cells (2 × 10^5 per well) were seeded in a 24-well plate and allowed to adhere overnight. Co-transfection with the two plasmids was performed in Lipofectamine 2000 (Invitrogen) according to the manufacturer’s instructions. During transfection (5 h), cells were exposed to different doses of RAD51-BRCA2 disruptors, dissolved in RPMI in the presence of 0.6% DMSO. After washing with PBS, cells were harvested, and DNA was isolated using Illustra Tissue and Cell Genomic Prep Mini Spin kit (GE Healthcare). Sample concentration was measured using an ONDA Nano Genius photometer. The efficiency of HR was assessed by real-time PCR, using 25 ng of template, the primer mixtures included in the assay kit and following the protocol indicated by the manufacturer. Data analysis was based on the ΔΔCt method: [recombination product/backbone plasmids]^treated versus [recombination product/backbone plasmids]^control.

[2] = Solubility (as observed in cell culture media / stated); assay type: physicochemical; conditions: cell culture media
[3] = Table 2, compounds selected for cell-based study, read-out: EC50 ELISA
[4] = competition with BRC4 for RAD51, triplicate, ± standard deviation, NA = not active, racemic mixtures unless enantiomer named, read-out: EC50 (μM) on ELISA assay

Row | Structure (SMILES) | EC50 (BRC4–RAD51 interaction; [3]) [µM] | EC50 (BRC4–RAD51 interaction; [4]) [µM] | olaparib association (increase of antiproliferative effect of olaparib) (BxPC3 cells) | HR inhibition (in words) [1] | solubility in cell culture media [2] | olaparib association (BxPC3 cells; at 5 μM) | olaparib association (BxPC3 cells; at 20 μM) | inhibition at 10 µM ([1]; Homo sapiens, BXPC-3, 10 μM, BxPC3, 5 h during plasmid transfection) [%] | inhibition at 40 µM ([1]; Homo sapiens, BXPC-3, 40 μM, BxPC3, 5 h during plasmid transfection) [%]
1 | O=C(O)CCC(=O)N1N=C(c2c(-c3ccccc3)c3cc(Cl)ccc3[nH]c2=O)CC1c1ccc(Br)cc1 (stereo not drawn) [Compound 12d, 4-(5-(4-Bromophenyl)-3-(6-chloro-2-oxo-4-phenyl-1,2-dihydroquinolin-3-yl)-4,5-dihydro-1H-pyrazol-1-yl)-4-oxobutanoic Acid] | 16 ± 2 | 16 ± 2 | olaparib association = not present | HR inhibition = not present | – | – | – | – | –
2 | CCC(=O)N1N=C(c2c(-c3ccccc3)c3cc(Cl)ccc3[nH]c2=O)CC1c1ccc(Cl)cc1 (stereo not drawn) [Compound 33d, 6-Chloro-3-(5-(4-chlorophenyl)-1-propionyl-4,5-dihydro-1H-pyrazol-3-yl)-4-phenylquinolin-2(1H)-one] | 8 ± 2 | 8 ± 2 | olaparib association = not present | HR inhibition = not present | – | – | – | – | –
3 | CCn1ncc2cc(-c3ccc(C4CC(c5c(-c6ccccc6)c6cc(Cl)ccc6[nH]c5=O)=NN4C(=O)CCC(=O)O)cc3)ccc21 (stereo not drawn) [Compound 30d, 4-(3-(6-Chloro-2-oxo-4-phenyl-1,2-dihydroquinolin-3-yl)-5-(4-(1-ethyl-1H-indazol-5-yl)phenyl)-4,5-dihydro-1H-pyrazol-1-yl)-4-oxobutanoic Acid] | 15 ± 3 | 15 ± 3 | – | – | poor solubility | – | – | – | –
4 | CCn1ccc2cc(C3CC(c4c(-c5ccccc5)c5cc(Cl)ccc5[nH]c4=O)=NN3C(=O)CCC(=O)O)ccc21 (stereo not drawn) [Compound 23d, 4-(3-(6-Chloro-2-oxo-4-phenyl-1,2-dihydroquinolin-3-yl)-5-(1-ethyl-1H-indol-5-yl)-4,5-dihydro-1H-pyrazol-1-yl)-4-oxobutanoic Acid] | 10 ± 2 | 10 ± 2 | olaparib association = not present | – | – | – | – | – | –
5 | O=C(O)CCC(=O)N1N=C(c2c(-c3ccccc3)c3cc(Cl)ccc3[nH]c2=O)CC1c1ccc(-c2ccc(Br)cc2)cc1 (stereo not drawn) [Compound 20d] | 20 ± 2 | 20 ± 2 | olaparib association = not present | – | – | – | – | – | –
6 | Cn1ccc2cc(C3CC(c4c(-c5ccccc5)c5cc(Cl)ccc5[nH]c4=O)=NN3C(=O)CCC(=O)O)ccc21 (stereo not drawn) [Compound 22d, 4-(3-(6-Chloro-2-oxo-4-phenyl-1,2-dihydroquinolin-3-yl)-5-(1-methyl-1H-indol-5-yl)-4,5-dihydro-1H-pyrazol-1-yl)-4-oxobutanoic Acid] | 2 ± 0.5 | 2 ± 0.5 | – | HR inhibition = not present | – | olaparib association = not present at 5 μM | – | – | –
7 | CCn1cc2cc(-c3ccc(C4CC(c5c(-c6ccccc6)c6cc(Cl)ccc6[nH]c5=O)=NN4C(=O)CCC(=O)O)cc3)ccc2n1 (stereo not drawn) [Compound 31d, 4-(3-(6-Chloro-2-oxo-4-phenyl-1,2-dihydroquinolin-3-yl)-5-(4-(2-ethyl-2H-indazol-5-yl)phenyl)-4,5-dihydro-1H-pyrazol-1-yl)-4-oxobutanoic Acid] | 17 ± 4 | 17 ± 4 | – | HR inhibition = NDD ^b | – | – | olaparib association = present at 20 μM | – | –
8 | CC(=O)N1N=C(c2c(-c3ccccc3)c3cc(Cl)ccc3[nH]c2=O)CC1c1ccc(Cl)cc1 (stereo not drawn) [Compound 36d, 3-(1-Acetyl-5-(4-chlorophenyl)-4,5-dihydro-1H-pyrazol-3-yl)-6-chloro-4-phenylquinolin-2(1H)-one] | 10 ± 0.7 | 10 ± 0.7 | olaparib association = not present | – | – | – | – | 24 | –
9 | O=C(O)CCC(=O)N1N=C(c2c(-c3ccccc3)c3cc(Cl)ccc3[nH]c2=O)CC1c1ccc(-c2ccc(F)cc2)cc1 (stereo not drawn) [Compound 18d, 4-(3-(6-Chloro-2-oxo-4-phenyl-1,2-dihydroquinolin-3-yl)-5-(4′-fluoro-[1,1′-biphenyl]-4-yl)-4,5-dihydro-1H-pyrazol-1-yl)-4-oxobutanoic Acid] | 13 ± 1 | 13 ± 1 | olaparib association = not present | – | – | – | – | – | –
10 | CCCn1ncc2cc(C3CC(c4c(-c5ccccc5)c5cc(Cl)ccc5[nH]c4=O)=NN3C(C)=O)ccc21 (stereo not drawn) [Compound 49d, 3-(1-Acetyl-5-(1-propyl-1H-indazol-5-yl)-4,5-dihydro-1H-pyrazol-3-yl)-6-chloro-4-phenylquinolin-2(1H)-one] | 0.95 ± 0.05 | 0.95 ± 0.05 | olaparib association = not present | HR inhibition = not present | – | – | – | – | –
11 | CC(=O)N1N=C(c2c(-c3ccccc3)c3cc(Cl)ccc3[nH]c2=O)CC1c1ccc2c(ccn2C)c1 (stereo not drawn) [Compound 45d, 3-(1-Acetyl-5-(1-methyl-1H-indol-5-yl)-4,5-dihydro-1H-pyrazol-3-yl)-6-chloro-4-phenylquinolin-2(1H)-one] | 18 ± 1 | 18 ± 1 | – | HR inhibition = not present | – | – | – | – | –
12 | O=C(O)CCC(=O)N1N=C(c2c(-c3ccccc3)c3cc(Cl)ccc3[nH]c2=O)CC1c1ccc(F)cc1 (stereo not drawn) [Compound 4d, 4-(3-(6-Chloro-2-oxo-4-phenyl-1,2-dihydroquinolin-3-yl)-5-(4-fluorophenyl)-4,5-dihydro-1H-pyrazol-1-yl)-4-oxobutanoic Acid] | 16 ± 4 | 16 ± 4 | – | – | – | – | – | – | 10
13 | COc1ccc(-c2ccc(C3CC(c4c(-c5ccccc5)c5cc(Cl)ccc5[nH]c4=O)=NN3C(=O)CCC(=O)O)cc2)cc1 (stereo not drawn) [Compound 21d, 4-(3-(6-Chloro-2-oxo-4-phenyl-1,2-dihydroquinolin-3-yl)-5-(4′-methoxy-[1,1′-biphenyl]-4-yl)-4,5-dihydro-1H-pyrazol-1-yl)-4-oxobutanoic Acid] | 20 ± 4 | 20 ± 4 | – | – | poor solubility | – | – | – | –
